Earlier results in US10279004B2, “Methods and compositions for enhancing or maintaining fertility” (Quality IP Holdings, LLC, priority 2016, dated 2019).

Columns and labels:
hGH = details: for effect on hGH: other amino acids, literature
[1] = subcutaneous injection of 0.06 IU in hGH deficient subjects

Compound: N=C(N)NCCC[C@H](N)C(=O)O [arginine]
- elevation of serum hGH levels (hGH; 30 g in males): 8.6 fold
- increase in hGH levels (hGH; intravenous infusion of 183 mg/kg body weight in females): > 20 fold

Compound: N[C@@H](Cc1c[nH]cn1)C(=O)O [histidine]
- effect on hGH (hGH): marked increases in hGH

Compound: NCCCC[C@H](N)C(=O)O [lysine]
- effect on hGH (hGH): marked increases in hGH

Compound: CSCC[C@H](N)C(=O)O [methionine]
- effect on hGH (hGH): marked increases in hGH

Compound: NCCC[C@H](N)C(=O)O [ornithine]
- effect on hGH (hGH): marked increases in hGH

Compound: N[C@@H](Cc1ccccc1)C(=O)O [phenylalanine]
- effect on hGH (hGH): marked increases in hGH

Compound: hGH: human growth hormone, available in injectable forms
- mean level of hGH reached [1]: 0.4 ng/mL
- probability of clinical pregnancy (administration during ovarian stimulation phase of IVF cycles): increase the probability of clinical pregnancy
- body composition in hGH-deficient adults (within months of hGH treatment): gains in lean body mass, skin thickness, and muscle mass are observed
